The subject of the experiment is KRAS PDC multicell spheroid viability. Description: Anticancer human tumor 521955-158-R6-J3-PDC patient-derived pancreatic carcinoma cell line growth inhibition [KRAS2]. The note with it: for viability, T/C: stronger effect = lower value. In a few lines:
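KRAS-mutant tumor cells were grown as spheroids with HUVEC endothelial cells and human MSCs as stroma. Targeted agents were tested alone and with KRAS pathway inhibitors. Doses started at or near clinical Cmax, or 10 microM, descending half-log.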

Where [1] appears, read: curve of first compound, second compound 0.1 µM.
The mark [2] stands for this setting: curve of first compound, second compound 0.316 µM.
[3] abbreviates: curve of first compound, second compound 1 µM.
Where [4] appears, read: curve of first compound, second compound 3.16 µM.
Where [5] appears, read: second compound 0.1 µM, first compound 0.0001 µM.
Setting [6] is: second compound 0.1 µM, first compound 0.000316 µM.
Setting [7] is: second compound 0.1 µM, first compound 0.001 µM.
Setting [8] is: second compound 0.1 µM, first compound 0.00316 µM.
Where [9] appears, read: second compound 0.1 µM, first compound 0.01 µM.
Where [10] appears, read: second compound 0.1 µM, first compound 0.0316 µM.
The mark [11] stands for this setting: second compound 0.316 µM, first compound 0.0001 µM.
[12] abbreviates: second compound 0.316 µM, first compound 0.000316 µM.
The mark [13] stands for this setting: second compound 0.316 µM, first compound 0.001 µM.
Where [14] appears, read: second compound 0.316 µM, first compound 0.00316 µM.
Setting [15] is: second compound 0.316 µM, first compound 0.01 µM.
[16] abbreviates: second compound 0.316 µM, first compound 0.0316 µM.
The mark [17] stands for this setting: second compound 1 µM, first compound 0.0001 µM.
Setting [18] is: second compound 1 µM, first compound 0.000316 µM.
The mark [19] stands for this setting: second compound 1 µM, first compound 0.001 µM.
[20] abbreviates: second compound 1 µM, first compound 0.00316 µM.
Where [21] appears, read: second compound 1 µM, first compound 0.01 µM.
[22] abbreviates: second compound 1 µM, first compound 0.0316 µM.
Where [23] appears, read: second compound 3.16 µM, first compound 0.0001 µM.
Setting [24] is: second compound 3.16 µM, first compound 0.000316 µM.
Setting [25] is: second compound 3.16 µM, first compound 0.001 µM.
Where [26] appears, read: second compound 3.16 µM, first compound 0.00316 µM.
[27] abbreviates: second compound 3.16 µM, first compound 0.01 µM.
The mark [28] stands for this setting: second compound 3.16 µM, first compound 0.0316 µM.
Setting [29] is: curve of first compound, second compound 10 µM.
The mark [30] stands for this setting: second compound 10 µM, first compound 0.01 µM.
[31] abbreviates: second compound 10 µM, first compound 0.0316 µM.
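Further: drug exposure lasted seven days.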
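Wherever viability, T/C is given: 100% = DMSO vehicle wells and lower means fewer viable cells.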

Consider `CC(=O)Nc1cccc(-n2c(=O)n(C3CC3)c(=O)c3c(Nc4ccc(I)cc4F)n(C)c(=O)c(C)c32)c1` + C=CC(=O)N1CCN(c2nc(OCC3CCCN3C)nc3c2CCN(c2cccc4cccc(C)c24)C3)CC1CC#N, for which the IC50 reads like this: (curve of first compound, second compound 0.0316 µM) > 31.6 nM; under setting [1], 28.4 nM; under setting [2], 21.2 nM; under setting [3], 9.67 nM; under setting [4], < 0.1 nM. Also, the viability, T/C by setting is: (second compound 0.0316 µM, first compound 0.0001 µM) 109%; (second compound 0.0316 µM, first compound 0.000316 µM) 109%; (second compound 0.0316 µM, first compound 0.001 µM) 108%; (second compound 0.0316 µM, first compound 0.00316 µM) 83.2%; (second compound 0.0316 µM, first compound 0.01 µM) 83.9%; (second compound 0.0316 µM, first compound 0.0316 µM) 52.8%. Besides, the viability, T/C reads like this: under setting [5], 93.1%; under setting [6], 111%; under setting [7], 100%; under setting [8], 81.4%; under setting [9], 76.8%; under setting [10], 46.8%. Moreover, the viability, T/C reads like this: under setting [11], 89.4%; under setting [12], 96%; under setting [13], 101%; under setting [14], 83.9%; under setting [15], 66.8%; under setting [16], 41.2%. Further, the viability, T/C reads like this: under setting [17], 72.4%; under setting [18], 72.4%; under setting [19], 87.1%; under setting [20], 65.4%; under setting [21], 50.9%; under setting [22], 38%. Moreover, the viability, T/C is 40.3% under setting [23]; 52.7% under setting [24]; 24.4% under setting [25]; 29.1% under setting [26]; 2.14% under setting [27]; 8.79% under setting [28].

Consider `C=CC(=O)N1CCN(c2nc(OCC3CCCN3C)nc3c2CCN(c2cccc4cccc(C)c24)C3)CC1CC#N` (configuration not stated), for which the viability, T/C reads like this: (compound 0.0316 µM) 91.1% [middle of 16 runs]; (compound 0.1 µM) 94.9% [middle of 16 runs]. The half-inhibitory concentration (IC50) (compound alone, run of 09/02/2021) is 2.01 µM [middle of 5 runs].

Consider `CC1(C)CCC(CN2CCN(c3ccc(C(=O)NS(=O)(=O)c4ccc(NCC5CCOCC5)c([N+](=O)[O-])c4)c(Oc4cnc5[nH]ccc5c4)c3)CC2)=C(c2ccc(Cl)cc2)C1`, for which the viability, T/C was 96.5% [middle of 5 runs] (compound 0.0316 µM), 96.3% [middle of 5 runs] (compound 0.1 µM), 90.6% [middle of 5 runs] (compound 0.316 µM) and 97.9% [middle of 5 runs] (compound 1 µM).

Regarding `CC(=O)Nc1cccc(-n2c(=O)n(C3CC3)c(=O)c3c(Nc4ccc(I)cc4F)n(C)c(=O)c(C)c32)c1` + CC1OCC2(CCN(c3cnc(Sc4ccnc(N)c4Cl)c(N)n3)CC2)C1N, the IC50 is, setting by setting: under setting [1], 18.9 nM; under setting [2], 12.5 nM; under setting [3], 5.43 nM; under setting [4], 2.44 nM; under setting [29], 2.24 nM. Moreover, the viability, T/C is 87.8% under setting [5]; 82.8% under setting [6]; 91.2% under setting [7]; 83.5% under setting [8]; 56.7% under setting [9]; 44.6% under setting [10]. In addition, the viability, T/C is, setting by setting: under setting [11], 83.2%; under setting [12], 85.7%; under setting [13], 77.2%; under setting [14], 65%; under setting [15], 55.7%; under setting [16], 33.7%. In addition, the viability, T/C by setting is: under setting [17], 103%; under setting [18], 87.6%; under setting [19], 80.1%; under setting [20], 55.3%; under setting [21], 41.8%; under setting [22], 27.8%. The viability, T/C is 105% under setting [23]; 90.7% under setting [24]; 62.8% under setting [25]; 47% under setting [26]; 34.9% under setting [27]; 28.6% under setting [28]. The viability, T/C is, setting by setting: (second compound 10 µM, first compound 0.0001 µM) 85.6%; (second compound 10 µM, first compound 0.000316 µM) 70.9%; (second compound 10 µM, first compound 0.001 µM) 67.4%; (second compound 10 µM, first compound 0.00316 µM) 42.3%; under setting [30], 30.3%; under setting [31], 23%.

On to `CC(=O)OC12COC1CC(O)C1(C)C(=O)C(O)C3=C(C)C(OC(=O)C(O)C(NC(=O)OC(C)(C)C)c4ccccc4)CC(O)(C(OC(=O)c4ccccc4)C21)C3(C)C` (configuration not stated) + C=CC(=O)N1CCN(c2nc(=O)n(-c3c(C)ccnc3C(C)C)c3nc(-c4c(O)cccc4F)c(F)cc23)C(C)C1, for which the IC50 runs as follows: under setting [1], > 3160 nM; under setting [2], > 3160 nM; under setting [3], > 3160 nM; under setting [4], > 3160 nM; under setting [29], > 3160 nM. The viability, T/C reads like this: under setting [9], 86.2%; under setting [10], 74.1%; (second compound 0.1 µM, first compound 0.1 µM) 77.7%; (second compound 0.1 µM, first compound 0.316 µM) 94.7%; (second compound 0.1 µM, first compound 1 µM) 94.3%; (second compound 0.1 µM, first compound 3.16 µM) 114%. For the same compound, the viability, T/C is, setting by setting: under setting [15], 86%; under setting [16], 82.5%; (second compound 0.316 µM, first compound 0.1 µM) 74.4%; (second compound 0.316 µM, first compound 0.316 µM) 77.1%; (second compound 0.316 µM, first compound 1 µM) 88.4%; (second compound 0.316 µM, first compound 3.16 µM) 113%. In addition, the viability, T/C runs as follows: under setting [21], 90.6%; under setting [22], 87%; (second compound 1 µM, first compound 0.1 µM) 81.4%; (second compound 1 µM, first compound 0.316 µM) 62.5%; (second compound 1 µM, first compound 1 µM) 65.6%; (second compound 1 µM, first compound 3.16 µM) 69%. Also, the viability, T/C under setting [27] is 97.3%; the viability, T/C under setting [28] was 88.1%; the viability, T/C (second compound 3.16 µM, first compound 0.1 µM) is 90.3%; the viability, T/C (second compound 3.16 µM, first compound 0.316 µM) was 101%; the viability, T/C (second compound 3.16 µM, first compound 1 µM) was 98.4%; the viability, T/C (second compound 3.16 µM, first compound 3.16 µM) was 104%. Moreover, the viability, T/C is 98.9% under setting [30]; 92.2% under setting [31]; 90.1% (second compound 10 µM, first compound 0.1 µM); 73.2% (second compound 10 µM, first compound 0.316 µM); 86.8% (second compound 10 µM, first compound 1 µM); 76.8% (second compound 10 µM, first compound 3.16 µM).

The values above are taken from PubChem BioAssay AID1963864 (Molecular Pharmacology Branch, DTP, NCI, 2024).
